[ ]: non-standard residue; d: D form. sY = N[C@@H](Cc1ccc(OS(=O)(=O)O)cc1)C(=O)O
System: single asparagus cells
Experiment: bioassay of the plant growth factors: colony formation frequency of incubated single asparagus cells
Assay type: cell-based, Asparagus officinalis L.
Settings: peptide made by synthesizer and enzymatic sulfation
Protocol: Single asparagus cells, as obtained according to the method of Example 4, were implanted in the media, as prepared by the method of Example 5, and incubated with the present plant growth factor in the media. The influence of the plant growth factor on the proliferation of the incubated asparagus cells was determined by measuring the change in the colony formation frequency in each medium. Cells were incubated in a 24-well microtiter plate (IWAKI 3820-024). To each well of the microtiter were added 250 μl of a suspension of single asparagus cells as prepared at a cell density of 2-fold the intended final cell density, 125 μl of the liquid medium having a concentration of 4-fold the intended final concentration, and 125 μl of sterilized distilled water or 125 μl of CM as obtained in Example 6, sterilized through filtration (ADVANTEC DISMIC-13 cp, 0.20 μm) and diluted just before use, and fully stirred. Then, the plates were sealed with vinyl tape in order to prevent vaporization, in which the cells were incubated in the dark at 28° C. with shaking at 120 rpm (TAITEC BR-300L). […] On the basis of the data thus obtained for 3 wells or more, the colony formation frequency (C) and the cell viability (L) were calculated according to the following equations. […] The colony formation frequency for the asparagus cells at each CM concentration was determined. […]

**Q.** H-[sY]I[sY]TQ-OH [compound (I-1)] was tested. Which “biological activity of the synthesized peptide compared with isolated compound (I-1)” value did it give?
**A.** The value was “exhibited the biological activity at the same concentrations”.
